# Measurements reported in BindingDB's records for doi:10.1074/jbc.M111.266981 (AstraZeneca, 2011).
# Target: T1, Myeloperoxidase (Homo sapiens, UniProt P05164)
# T1 sequence (P05164 whole entry): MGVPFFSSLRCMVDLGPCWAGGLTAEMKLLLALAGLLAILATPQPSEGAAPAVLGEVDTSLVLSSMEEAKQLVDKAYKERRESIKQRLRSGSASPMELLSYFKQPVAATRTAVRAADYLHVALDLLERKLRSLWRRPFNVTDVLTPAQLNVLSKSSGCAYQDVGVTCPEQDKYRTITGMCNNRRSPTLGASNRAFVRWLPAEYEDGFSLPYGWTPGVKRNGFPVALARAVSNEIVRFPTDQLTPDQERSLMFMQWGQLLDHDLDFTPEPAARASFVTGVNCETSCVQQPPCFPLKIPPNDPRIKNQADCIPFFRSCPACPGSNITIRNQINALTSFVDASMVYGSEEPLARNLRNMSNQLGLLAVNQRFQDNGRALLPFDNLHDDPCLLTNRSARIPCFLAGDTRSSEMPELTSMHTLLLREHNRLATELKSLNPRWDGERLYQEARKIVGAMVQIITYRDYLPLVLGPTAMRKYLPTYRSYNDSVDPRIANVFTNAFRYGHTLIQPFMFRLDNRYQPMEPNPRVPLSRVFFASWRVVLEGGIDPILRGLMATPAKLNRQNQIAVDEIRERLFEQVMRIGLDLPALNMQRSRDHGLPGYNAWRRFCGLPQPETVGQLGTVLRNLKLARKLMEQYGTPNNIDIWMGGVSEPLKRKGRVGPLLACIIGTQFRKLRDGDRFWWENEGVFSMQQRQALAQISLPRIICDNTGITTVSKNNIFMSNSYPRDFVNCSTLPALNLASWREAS
# Assay: Activity Assay
# Details: pH 7.4; 21 °C
# Method: The chlorination activity of MPO was determined by measuring the production of hypocholorous acid.
row,IC50 [nM],SMILES
1,1000,"CC(C)Cn1c(=S)[nH]c(=O)c2[nH]cnc21 [2-Thioxanthine, TX1]"
2,400,"O=c1[nH]c(=S)n(CC2CCCO2)c2nc[nH]c12 (centres undefined) [2-Thioxanthine, TX3]"
3,200,"O=c1[nH]c(=S)n(C[C@H]2CCCO2)c2nc[nH]c12 [2-Thioxanthine, TX4]"
4,400,"COCCn1c(=S)[nH]c(=O)c2[nH]cnc21 [2-Thioxanthine, TX5]"
